Experimental data from patent US20170190705A1, “Compositions and Methods for Inhibiting BMP” (THE BRIGHAM AND WOMAN'S HOSPITAL, INC., priority 2014, published 2017).

Key:
Format in all cases: biochemical
PRKG1 = target: T1, PRKG1 (Homo sapiens, UniProt Q13976); assay: Kinome profiling PRKG1; settings: read-out: Inhibitory activity PRKG1; for inhibition at 0.1 µM: 100 nM
T1 sequence (Q13976 1-671): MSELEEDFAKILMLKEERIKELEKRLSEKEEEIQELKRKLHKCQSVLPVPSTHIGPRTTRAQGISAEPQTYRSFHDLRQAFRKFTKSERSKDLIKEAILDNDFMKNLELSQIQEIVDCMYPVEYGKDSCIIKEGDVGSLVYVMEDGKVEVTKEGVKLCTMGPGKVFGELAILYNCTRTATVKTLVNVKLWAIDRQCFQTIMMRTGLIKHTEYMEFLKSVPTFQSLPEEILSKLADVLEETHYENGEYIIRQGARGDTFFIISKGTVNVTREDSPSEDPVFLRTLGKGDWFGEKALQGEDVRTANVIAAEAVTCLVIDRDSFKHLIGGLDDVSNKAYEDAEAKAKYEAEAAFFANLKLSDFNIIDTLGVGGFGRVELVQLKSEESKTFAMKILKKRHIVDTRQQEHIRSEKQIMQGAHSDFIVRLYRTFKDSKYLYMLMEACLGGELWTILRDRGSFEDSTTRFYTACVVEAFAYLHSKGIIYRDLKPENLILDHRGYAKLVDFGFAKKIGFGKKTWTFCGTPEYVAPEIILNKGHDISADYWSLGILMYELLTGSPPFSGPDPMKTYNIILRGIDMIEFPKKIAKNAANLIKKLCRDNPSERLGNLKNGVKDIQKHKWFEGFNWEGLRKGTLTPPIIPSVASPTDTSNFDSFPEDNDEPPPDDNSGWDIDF
Experimental: (§1) . The kinome-wide selectivity was determined following the methods previously reported by Mohedas et al., ACS Chem Biol 2013, 8, 1291-1302 and Sanvitale et al., PLoS One 2013, 8, e62721.

CK1-γ1 = CK1-γ1 (Homo sapiens, UniProt Q9HCP0); assay: Kinome profiling CK1-γ1; settings: read-out: Inhibitory activity CK1-γ1; for inhibition at 0.1 µM: 100 nM
CK1-γ1, sequence (Q9HCP0 whole entry): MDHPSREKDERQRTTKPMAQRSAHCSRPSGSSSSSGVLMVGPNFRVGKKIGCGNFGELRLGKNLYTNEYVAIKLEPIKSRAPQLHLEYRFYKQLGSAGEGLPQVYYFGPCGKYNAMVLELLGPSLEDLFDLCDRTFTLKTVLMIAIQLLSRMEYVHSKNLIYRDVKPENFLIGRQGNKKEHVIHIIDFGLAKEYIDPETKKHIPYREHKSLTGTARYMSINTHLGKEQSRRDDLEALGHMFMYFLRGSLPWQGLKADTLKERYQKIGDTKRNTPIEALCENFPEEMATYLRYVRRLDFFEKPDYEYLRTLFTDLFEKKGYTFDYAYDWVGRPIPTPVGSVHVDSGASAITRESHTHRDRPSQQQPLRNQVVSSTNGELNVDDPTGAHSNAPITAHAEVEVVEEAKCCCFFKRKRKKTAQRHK
Experimental: as §1

BMX = target: T2, BMX (Homo sapiens, UniProt P51813); assay: Kinome profiling BMX; settings: read-out: Inhibitory activity BMX; for inhibition at 0.1 µM: 100 nM
T2 sequence (P51813 1-675): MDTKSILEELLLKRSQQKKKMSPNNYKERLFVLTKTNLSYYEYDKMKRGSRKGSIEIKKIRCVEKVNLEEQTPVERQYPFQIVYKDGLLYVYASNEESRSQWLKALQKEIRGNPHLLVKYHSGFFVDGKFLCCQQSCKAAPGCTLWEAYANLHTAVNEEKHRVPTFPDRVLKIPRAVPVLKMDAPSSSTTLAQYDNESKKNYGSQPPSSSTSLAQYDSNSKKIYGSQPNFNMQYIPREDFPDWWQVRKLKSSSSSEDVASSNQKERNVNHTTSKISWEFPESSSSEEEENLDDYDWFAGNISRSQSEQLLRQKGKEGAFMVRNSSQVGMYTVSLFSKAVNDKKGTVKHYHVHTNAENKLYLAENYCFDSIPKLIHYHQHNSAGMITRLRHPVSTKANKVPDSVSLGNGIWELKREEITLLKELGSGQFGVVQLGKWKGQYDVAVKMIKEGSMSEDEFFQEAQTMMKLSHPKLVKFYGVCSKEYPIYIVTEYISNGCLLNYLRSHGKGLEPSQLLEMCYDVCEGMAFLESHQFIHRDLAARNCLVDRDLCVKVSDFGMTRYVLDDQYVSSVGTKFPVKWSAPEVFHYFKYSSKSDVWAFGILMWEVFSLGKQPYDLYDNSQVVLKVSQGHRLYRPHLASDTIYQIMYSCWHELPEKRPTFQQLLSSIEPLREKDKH
Experimental: as §1

PIM3 = PIM3 (Homo sapiens, UniProt Q86V86); assay: Kinome profiling PIM3; settings: read-out: Inhibitory activity PIM3; for inhibition at 0.1 µM: 100 nM
Experimental: as §1

JAK2 = JAK2 (Homo sapiens, UniProt O60674); assay: Kinome profiling JAK2; settings: read-out: Inhibitory activity JAK2; for inhibition at 0.1 µM: 100 nM
JAK2, sequence (O60674 whole entry): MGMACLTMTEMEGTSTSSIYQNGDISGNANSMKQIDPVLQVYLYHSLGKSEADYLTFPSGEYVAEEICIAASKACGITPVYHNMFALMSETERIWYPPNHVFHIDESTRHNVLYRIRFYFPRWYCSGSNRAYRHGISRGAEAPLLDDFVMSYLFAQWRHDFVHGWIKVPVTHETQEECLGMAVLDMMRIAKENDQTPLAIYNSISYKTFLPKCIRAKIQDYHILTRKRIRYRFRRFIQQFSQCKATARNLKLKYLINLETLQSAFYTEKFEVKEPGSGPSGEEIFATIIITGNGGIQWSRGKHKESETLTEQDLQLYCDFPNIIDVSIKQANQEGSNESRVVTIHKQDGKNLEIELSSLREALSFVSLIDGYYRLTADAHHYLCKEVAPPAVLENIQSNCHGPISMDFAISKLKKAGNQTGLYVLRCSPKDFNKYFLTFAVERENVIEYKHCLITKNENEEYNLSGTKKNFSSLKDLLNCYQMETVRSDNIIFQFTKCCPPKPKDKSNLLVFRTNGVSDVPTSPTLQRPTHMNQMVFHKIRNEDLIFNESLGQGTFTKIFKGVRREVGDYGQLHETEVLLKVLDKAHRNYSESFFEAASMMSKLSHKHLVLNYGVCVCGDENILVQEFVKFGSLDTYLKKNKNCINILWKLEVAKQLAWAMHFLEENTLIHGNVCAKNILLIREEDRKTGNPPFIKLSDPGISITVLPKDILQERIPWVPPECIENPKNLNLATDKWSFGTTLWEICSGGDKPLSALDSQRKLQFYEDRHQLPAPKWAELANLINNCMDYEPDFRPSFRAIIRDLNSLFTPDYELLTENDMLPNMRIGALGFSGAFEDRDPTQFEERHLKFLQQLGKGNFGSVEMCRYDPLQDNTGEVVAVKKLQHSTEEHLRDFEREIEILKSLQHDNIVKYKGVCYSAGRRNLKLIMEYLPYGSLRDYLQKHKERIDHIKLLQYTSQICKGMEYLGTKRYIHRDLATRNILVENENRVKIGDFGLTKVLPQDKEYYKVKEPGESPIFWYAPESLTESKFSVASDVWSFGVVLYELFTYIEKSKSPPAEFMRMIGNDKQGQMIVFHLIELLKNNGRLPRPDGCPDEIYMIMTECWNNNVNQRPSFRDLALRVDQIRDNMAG
Experimental: as §1

MET = MET (Homo sapiens, UniProt P08581); assay: Kinome profiling MET; settings: read-out: Inhibitory activity MET; for inhibition at 0.1 µM: 100 nM
MET, sequence (P08581 25-1390): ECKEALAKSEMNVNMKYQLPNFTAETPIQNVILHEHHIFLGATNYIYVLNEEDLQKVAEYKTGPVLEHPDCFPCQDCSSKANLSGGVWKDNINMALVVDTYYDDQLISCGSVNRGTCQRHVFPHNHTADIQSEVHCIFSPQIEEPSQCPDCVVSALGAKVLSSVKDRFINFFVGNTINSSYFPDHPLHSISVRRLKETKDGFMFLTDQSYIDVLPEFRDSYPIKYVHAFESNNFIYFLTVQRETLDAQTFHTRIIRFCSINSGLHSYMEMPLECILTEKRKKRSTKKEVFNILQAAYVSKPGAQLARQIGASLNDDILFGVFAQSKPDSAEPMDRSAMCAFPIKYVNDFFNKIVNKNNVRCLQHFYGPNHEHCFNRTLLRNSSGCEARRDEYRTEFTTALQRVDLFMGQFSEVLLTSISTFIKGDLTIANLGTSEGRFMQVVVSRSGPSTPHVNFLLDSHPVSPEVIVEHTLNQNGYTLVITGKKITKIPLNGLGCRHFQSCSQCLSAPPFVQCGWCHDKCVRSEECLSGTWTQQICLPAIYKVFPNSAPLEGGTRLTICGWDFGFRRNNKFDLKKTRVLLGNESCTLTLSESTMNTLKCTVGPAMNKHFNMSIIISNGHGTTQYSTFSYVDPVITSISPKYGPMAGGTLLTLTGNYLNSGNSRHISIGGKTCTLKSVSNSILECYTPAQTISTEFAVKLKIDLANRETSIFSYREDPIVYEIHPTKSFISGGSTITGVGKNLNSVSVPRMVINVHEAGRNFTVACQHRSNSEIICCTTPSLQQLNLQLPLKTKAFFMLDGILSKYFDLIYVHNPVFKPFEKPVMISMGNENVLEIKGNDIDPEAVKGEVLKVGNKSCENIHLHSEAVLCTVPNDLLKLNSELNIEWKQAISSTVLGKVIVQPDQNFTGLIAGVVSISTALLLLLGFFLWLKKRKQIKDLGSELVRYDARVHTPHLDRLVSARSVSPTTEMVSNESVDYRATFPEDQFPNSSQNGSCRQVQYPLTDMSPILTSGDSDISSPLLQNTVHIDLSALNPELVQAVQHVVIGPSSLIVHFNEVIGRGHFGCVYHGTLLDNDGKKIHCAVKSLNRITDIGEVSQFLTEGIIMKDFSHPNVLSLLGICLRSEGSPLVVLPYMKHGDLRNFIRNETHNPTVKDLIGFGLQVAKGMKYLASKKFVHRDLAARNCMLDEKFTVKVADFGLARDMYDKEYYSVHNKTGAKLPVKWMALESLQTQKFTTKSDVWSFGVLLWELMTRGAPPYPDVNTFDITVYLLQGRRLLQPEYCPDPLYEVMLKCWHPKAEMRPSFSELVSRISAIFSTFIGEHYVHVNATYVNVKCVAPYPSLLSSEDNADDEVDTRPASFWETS
Experimental: as §1

PRKD3 = target: T3, PRKD3 (Homo sapiens, UniProt O94806); assay: Kinome profiling PRKD3; settings: read-out: Inhibitory activity PRKD3; for inhibition at 0.1 µM: 100 nM
T3 sequence (O94806 1-890): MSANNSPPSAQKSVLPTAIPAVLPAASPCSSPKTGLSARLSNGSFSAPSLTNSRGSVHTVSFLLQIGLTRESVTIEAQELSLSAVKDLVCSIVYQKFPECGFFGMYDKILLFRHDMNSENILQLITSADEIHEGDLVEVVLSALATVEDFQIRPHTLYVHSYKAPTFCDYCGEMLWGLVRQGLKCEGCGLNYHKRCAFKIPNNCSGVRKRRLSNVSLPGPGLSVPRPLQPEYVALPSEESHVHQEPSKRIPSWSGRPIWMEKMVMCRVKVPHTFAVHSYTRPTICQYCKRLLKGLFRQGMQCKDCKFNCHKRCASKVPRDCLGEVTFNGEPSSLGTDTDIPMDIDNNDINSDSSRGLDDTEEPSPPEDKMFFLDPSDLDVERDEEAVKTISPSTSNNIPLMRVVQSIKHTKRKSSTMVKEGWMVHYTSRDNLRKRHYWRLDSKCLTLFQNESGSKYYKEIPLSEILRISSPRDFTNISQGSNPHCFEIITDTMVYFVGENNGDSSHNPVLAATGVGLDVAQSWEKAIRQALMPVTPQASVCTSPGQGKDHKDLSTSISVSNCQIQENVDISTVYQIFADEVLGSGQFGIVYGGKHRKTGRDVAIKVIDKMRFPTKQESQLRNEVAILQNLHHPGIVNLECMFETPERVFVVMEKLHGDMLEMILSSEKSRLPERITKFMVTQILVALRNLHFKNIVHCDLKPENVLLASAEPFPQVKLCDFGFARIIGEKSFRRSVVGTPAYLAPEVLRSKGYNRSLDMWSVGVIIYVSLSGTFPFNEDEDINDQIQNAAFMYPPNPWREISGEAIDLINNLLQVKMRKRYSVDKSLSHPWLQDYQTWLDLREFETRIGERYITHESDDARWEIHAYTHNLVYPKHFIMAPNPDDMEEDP
Experimental: as §1

PKC-θ = PKC-θ (Homo sapiens, UniProt Q04759); assay: Kinome profiling PKC-θ; settings: read-out: Inhibitory activity PKC-θ; for inhibition at 0.1 µM: 100 nM
PKC-θ, sequence (Q04759 whole entry): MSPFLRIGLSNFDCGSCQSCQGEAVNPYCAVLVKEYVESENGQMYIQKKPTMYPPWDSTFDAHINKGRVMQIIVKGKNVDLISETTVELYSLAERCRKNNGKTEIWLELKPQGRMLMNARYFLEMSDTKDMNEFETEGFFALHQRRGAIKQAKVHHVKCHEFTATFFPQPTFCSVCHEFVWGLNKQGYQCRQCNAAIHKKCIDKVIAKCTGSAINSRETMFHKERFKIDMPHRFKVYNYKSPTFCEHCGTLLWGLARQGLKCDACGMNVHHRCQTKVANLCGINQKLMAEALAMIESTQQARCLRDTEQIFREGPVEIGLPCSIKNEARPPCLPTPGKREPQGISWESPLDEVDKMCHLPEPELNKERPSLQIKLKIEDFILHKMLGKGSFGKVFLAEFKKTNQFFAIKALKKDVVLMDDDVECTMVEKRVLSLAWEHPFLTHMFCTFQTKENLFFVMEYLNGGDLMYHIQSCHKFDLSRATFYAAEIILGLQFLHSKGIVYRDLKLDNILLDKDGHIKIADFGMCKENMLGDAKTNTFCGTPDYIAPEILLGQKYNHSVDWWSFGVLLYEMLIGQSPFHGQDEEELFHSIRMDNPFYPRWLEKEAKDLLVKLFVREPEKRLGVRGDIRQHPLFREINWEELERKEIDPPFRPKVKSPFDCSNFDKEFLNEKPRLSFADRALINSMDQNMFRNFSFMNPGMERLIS
Experimental: as §1

Compound | inhibition at 0.1 µM (PRKG1) [%] | inhibition at 1 µM (PRKG1) [%] | inhibition at 0.1 µM (CK1-γ1) [%] | inhibition at 1 µM (CK1-γ1) [%] | inhibition at 0.1 µM (BMX) [%] | inhibition at 1 µM (BMX) [%] | inhibition at 0.1 µM (PIM3) [%] | inhibition at 1 µM (PIM3) [%] | inhibition at 0.1 µM (JAK2) [%] | inhibition at 1 µM (JAK2) [%] | inhibition at 0.1 µM (MET) [%] | inhibition at 1 µM (MET) [%] | inhibition at 0.1 µM (PRKD3) [%] | inhibition at 1 µM (PRKD3) [%] | inhibition at 0.1 µM (PKC-θ) [%] | inhibition at 1 µM (PKC-θ) [%]
COc1cc(-c2cc(-c3ccc(N4CCNCC4)cc3)cnc2C)cc(OC)c1OC [Compound 10, 1-(4-(6-methyl-5-(3,4,5-trimethoxyphenyl)pyridin-3-yl)phenyl)piperazine] | 3 | 2 | 1 | 6 | 7 | 11 | 3 | 4 | 5 | 4 | -1 | 2 | 2 | 21 | 1 | 2
COc1cc(-c2cc(-c3ccc(N4CCNCC4)cc3)cnc2N)cc(OC)c1OC [Compound 15, 5-(4-(piperazin-1-yl)phenyl)-3-(3,4,5-trimethoxyphenyl)pyridin-2-amine] | 0 | 4 | 4 | 17 | 5 | 30 | 1 | -1 | 0 | 0 | 7 | 21 | 7 | 38 | 1 | 1
